Laboratory results: patent US11154563B2, “Immunoproteasome inhibitors” (Principia Biopharma Inc., priority 2017, dated 2021)

What was measured:
[1] = molecular target: immunoproteasome LMP7/B5i subunit (Homo sapiens, UniProt P20618+P28062); assay: Caliper-based proteasome enzymatic activity assay, LMP7; type: biochemical; conditions: human recombinant immunoproteasome 0.3 nM, FAM-peptide substrate 1 μM, 3 h at rt
Experimental: (§1) A Caliper-based proteasome assay (Caliper Life Sciences, Hopkinton, Mass.) was used to measure inhibition of the immunoproteasome LMP7/B5i subunit, the immunoproteasome LPM2/β1i subunit, and the constitutive proteasome β5c unit for a compound of Formula (I). For LMP7 and β5c, serial dilutions of test compounds were incubated with either human recombinant immunoprotcasome or constitutive proteasome (0.3 nM enzyme) and a carboxyfluorescein (FAM)-labeled peptide substrate FAM-TYETFKSIMKKSPF-NH2 (1 μM) at it for 3 h. The reaction was then terminated with a buffer containing the known proteasome inhibitor carfilzomib at a concentration of 5 uM. For LMP2, serial dilutions of test compounds were incubated with human recombinant immunoproteasome proteasome (0.3 nM enzyme) and a carboxyfluorescein (FAM)-labeled peptide substrate FAM-[…]-NH2 (1 μM) at rt for 2 h. The reaction was then terminated with a buffer containing the known proteasome inhibitor ixazomib at a concentration of 6.7 uM. The reaction buffer was 20 mM Hepes pH 7.4, 0.01% bovine serum albumin, 0.015% SDS, 0.5 mM EDTA, 1%0/DMSO. The peptide cleavage reaction product was quantified on a Caliper LabChip 3000. Percent inhibition was calculated for each compound dilution and the concentration that produced 50% inhibition was calculated. This value is presented as the IC50.

[2] = molecular target: constitutive proteasome β5c unit (Homo sapiens, UniProt P20618+P28074); assay: Caliper-based proteasome enzymatic activity assay, β5c; type: biochemical; conditions: human recombinant constitutive proteasome 0.3 nM, FAM-peptide substrate 1 μM, 3 h at rt; read-out: β5c subunit IC50
Experimental: as §1

Row | IC50 [1] [nM] | IC50 [2] [nM] | Structure (SMILES)
1 | 0.5 | 141 | CC(C)(C=C(C#N)C(=O)N1CCC[C@@H]1COC(=O)N[C@@H](Cc1coc2ccccc12)B(O)O)N1CCC(F)(F)C1 [Example 42, ((R)-2-(benzofuran-3-yl)-1-(((((R)-1-(2-cyano-4-(3,3-difluoropyrrolidin-1-yl)-4-methylpent-2-enoyl)pyrrolidin-2-yl)methoxy)carbonyl)amino)ethyl)boronic acid]
2 | 2 | 34 | CC(C)(C)C=C(C#N)C(=O)N1CCOC[C@@H]1COC(=O)N[C@@H](Cc1coc2ccccc12)B(O)O [Example 43, ((R)-2-(benzofuran-3-yl)-1-(((((R)-4-(2-cyano-4,4-dimethylpent-2-enoyl)morpholin-3-yl)methoxy)carbonyl)amino)ethyl)boronic acid]
3 | 2.3 | 396 | CC(C)(C=C(C#N)C(=O)N1CCC[C@@H]1COC(=O)N[C@@H](Cc1coc2ccccc12)B(O)O)N1CCN(C2COC2)CC1 [Example 44, ((R)-2-(benzofuran-3-yl)-1-(((((R)-1-(2-cyano-4-methyl-4-(4-(oxetan-3-yl)piperazin-1-yl)pent-2-enoyl)pyrrolidin-2-yl)methoxy)carbonyl)amino)ethyl)boronic acid]
4 | 4 | 854 | Cc1ccc(C[C@H](NC(=O)OC[C@H]2CCCCN2C(=O)C(C#N)=CC(C)(C)N2CCOCC2)B(O)O)cc1 [Example 45, ((R)-1-(((((R)-1-(2-cyano-4-methyl-4-morpholinopent-2-enoyl)piperidin-2-yl)methoxy)carbonyl)amino)-2-(p-tolyl)ethyl)boronic acid]
5 | 1 | 187 | CC(C)(C=C(C#N)C(=O)N1CCCC[C@@H]1COC(=O)N[C@@H](Cc1coc2ccccc12)B(O)O)N1CCOCC1 [Example 46, ((R)-2-(benzofuran-3-yl)-1-(((((R)-1-(2-cyano-4-methyl-4-morpholinopent-2-enoyl)piperidin-2-yl)methoxy)carbonyl)amino)ethyl)boronic acid]
6 | 1.1 | 128 | CC(C)(C=C(C#N)C(=O)N1CCCC[C@@H]1COC(=O)N[C@@H](Cc1coc2ccccc12)B(O)O)N1CCC(F)(F)C1 [Example 47]
7 | 0.6 | 115 | CC(C)(C)C=C(C#N)C(=O)N1C[C@@H]2C[C@@H]2[C@@H]1COC(=O)N[C@@H](Cc1coc2ccccc12)B(O)O [Example 48, ((R)-2-(benzofuran-3-yl)-1-(((((1S,2R,5R)-3-(2-cyano-4,4-dimethylpent-2-enoyl)-3-azabicyclo[3.1.0]hexan-2-yl)methoxy)carbonyl)amino)ethyl)boronic acid]
8 | 1.3 | 149 | CN(C)C/C=C/C(=O)N1CCC[C@@H]1COC(=O)N[C@@H](Cc1coc2ccccc12)B(O)O [Example 49, ((R)-2-(benzofuran-3-yl)-1-(((((R)-1-((E)-4-(dimethylamino)but-2-enoyl)pyrrolidin-2-yl)methoxy)carbonyl)amino)ethyl)boronic acid]
9 | 9.8 | > 5000 | CC(C)(C)C=C(C#N)C(=O)N1CCCC[C@@H]1COC(=O)N[C@@H](CCc1ccccc1)B(O)O [Example 50, ((R)-1-(((((R)-1-(2-cyano-4,4-dimethylpent-2-enoyl)piperidin-2-yl)methoxy)carbonyl)amino)-3-phenylpropyl)boronic acid]
10 | 0.5 | 356 | CC(C)(C=C(C#N)C(=O)N1C[C@@H]2C[C@@H]2[C@@H]1COC(=O)N[C@@H](Cc1coc2ccccc12)B(O)O)N1CCOCC1 [Example 51, ((R)-2-(benzofuran-3-yl)-1-(((((1S,2R,5R)-3-(2-cyano-4-methyl-4-morpholinopent-2-enoyl)-3-azabicyclo[3.1.0]hexan-2-yl)methoxy)carbonyl)amino)ethyl)boronic acid]
11 | 1.3 | 336 | C=CC(=O)N1C[C@@H]2C[C@@H]2[C@@H]1COC(=O)N[C@@H](Cc1coc2ccccc12)B(O)O [Example 52, ((R)-1-(((((1S,2R,5R)-3-acryloyl-3-azabicyclo[3.1.0]hexan-2-yl)methoxy)carbonyl)amino)-2-(benzofuran-3-yl)ethyl)boronic acid]
12 | 1.8 | 205 | CC(=O)N1CCN(C(C)(C)C=C(C#N)C(=O)N2CCC[C@@H]2COC(=O)N[C@@H](Cc2coc3ccccc23)B(O)O)CC1 [Example 53, ((R)-1-(((((R)-1-(4-(4-acetylpiperazin-1-yl)-2-cyano-4-methylpent-2-enoyl)pyrrolidin-2-yl)methoxy)carbonyl)amino)-2-(benzofuran-3-yl)ethyl)boronic acid]
13 | 1.6 | 192 | CC(C)(C=C(C#N)C(=O)N1C[C@@H]2C[C@@H]2[C@@H]1COC(=O)N[C@@H](Cc1coc2ccccc12)B(O)O)N1CCC(F)(F)C1 [Example 54, ((R)-2-(benzofuran-3-yl)-1-(((((1S,2R,5R)-3-(2-cyano-4-(3,3-difluoropyrrolidin-1-yl)-4-methylpent-2-enoyl)-3-azabicyclo[3.1.0]hexan-2-yl)methoxy)carbonyl)amino)ethyl)boronic acid]
14 | 2.5 | 225 | CN1CCN(C(C)(C)C=C(C#N)C(=O)N2CCC[C@@H]2COC(=O)N[C@@H](Cc2coc3ccccc23)B(O)O)CC1 [Example 55, ((R)-2-(benzofuran-3-yl)-1-(((((R)-1-(2-cyano-4-methyl-4-(4-methylpiperazin-1-yl)pent-2-enoyl)pyrrolidin-2-yl)methoxy)carbonyl)amino)ethyl)boronic acid]
15 | 1.7 | 148 | CC(C)(C=C(C#N)C(=O)N1CC(F)(F)C[C@@H]1COC(=O)N[C@@H](Cc1coc2ccccc12)B(O)O)N1CCOCC1 [Example 56, ((R)-2-(benzofuran-3-yl)-1-(((((R)-1-(2-cyano-4-methyl-4-morpholinopent-2-enoyl)-4,4-difluoropyrrolidin-2-yl)methoxy)carbonyl)amino)ethyl)boronic acid]
16 | 1.4 | 176 | C[C@H]1CC[C@H](COC(=O)N[C@@H](Cc2coc3ccccc23)B(O)O)N1C(=O)C(C#N)=CC(C)(C)N1CCOCC1 [Example 57, ((R)-2-(benzofuran-3-yl)-1-(((((2R,5S)-1-(2-cyano-4-methyl-4-morpholinopent-2-enoyl)-5-methylpyrrolidin-2-yl)methoxy)carbonyl)amino)ethyl)boronic acid]
17 | 0.8 | 23 | CC(C)(C=C(C#N)C(=O)N1CCOC[C@@H]1COC(=O)N[C@@H](Cc1coc2ccccc12)B(O)O)N1CCOCC1 [Example 58, ((R)-2-(benzofuran-3-yl)-1-(((((R)-4-(2-cyano-4-methyl-4-morpholinopent-2-enoyl)morpholin-3-yl)methoxy)carbonyl)amino)ethyl)boronic acid]
18 | 0.9 | 232 | CC(C)(C=C(C#N)C(=O)N1CCCC[C@@H]1COC(=O)N[C@@H](Cc1coc2ccccc12)B(O)O)N1CCN(C2COC2)CC1 [Example 60, ((R)-2-(benzofuran-3-yl)-1-(((((R)-1-(2-cyano-4-methyl-4-(4-(oxetan-3-yl)piperazin-1-yl)pent-2-enoyl)piperidin-2-yl)methoxy)carbonyl)amino)ethyl)boronic acid]
19 | 1.4 | 1490 | CC(C)(C)/C=C(\C#N)C(=O)N1CC(F)(F)C[C@@H]1COC(=O)N[C@@H](Cc1ccccc1)B(O)O [Example 61, ((R)-1-(((((R)-1-((E)-2-cyano-4,4-dimethylpent-2-enoyl)-4,4-difluoropyrrolidin-2-yl)methoxy)carbonyl)amino)-2-phenylethyl)boronic acid]
20 | 1.6 | 205 | CC(C)(C=C(C#N)C(=O)N1CCCC[C@@H]1COC(=O)N[C@@H](Cc1coc2ccccc12)B(O)O)N1CCCC(F)(F)C1 [Example 62, ((R)-2-(benzofuran-3-yl)-1-(((((R)-1-(2-cyano-4-(3,3-difluoropiperidin-1-yl)-4-methylpent-2-enoyl)piperidin-2-yl)methoxy)carbonyl)amino)ethyl)boronic acid]
21 | 1.4 | 230 | CC(C)(C=C(C#N)C(=O)N1CCCCC[C@@H]1COC(=O)N[C@@H](Cc1coc2ccccc12)B(O)O)N1CCOCC1 [Example 63, ((R)-2-(benzofuran-3-yl)-1-(((((R)-1-(2-cyano-4-methyl-4-morpholinopent-2-enoyl)-azepan-2-yl)methoxy)carbonyl)amino)ethyl)boronic acid]
22 | 3.3 | 645 | CC(C)(C=C(C#N)C(=O)N1CCCCC[C@H]1COC(=O)N[C@@H](Cc1coc2ccccc12)B(O)O)N1CCOCC1 [Example 64, ((R)-2-(benzofuran-3-yl)-1-(((((S)-1-(2-cyano-4-methyl-4-morpholinopent-2-enoyl)azepan-2-yl)methoxy)carbonyl)amino)ethyl)boronic acid]
23 | 2.3 | 60 | CC(C)(C=C(C#N)C(=O)N1CCOC[C@@H]1COC(=O)N[C@@H](Cc1coc2ccccc12)B(O)O)N1CCC(F)(F)C1 [Example 65, ((R)-2-(benzofuran-3-yl)-1-(((((R)-4-(2-cyano-4-(3,3-difluoropyrrolidin-1-yl)-4-methylpent-2-enoyl)morpholin-3-yl)methoxy)carbonyl)amino)ethyl)boronic acid]
